Measurements published in ChEMBL document CHEMBL1201862, “PubChem BioAssay data set” (2004).
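Briefly, cells in 96-well plates were exposed to five compound concentrations for 48 h, and endpoints were estimated by linear interpolation. Abbreviation: GI50, concentration required for 50% inhibition of growth.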 Calls of active or inactive are those of the source. Rule as the data show it: active = GI50 up to about 1.1 µM and inactive = higher.

Assays:
Assay in all cases: DTP human tumour cell line panel, 48 h
SNB-19 = test system: SNB-19
COLO 205 = test system: COLO 205
MDA-N = test system: MDA-N
IGROV-1 = test system: IGROV-1
SF-539 = test system: SF-539
MCF7 = test system: MCF7
DU-145 = test system: DU-145
OVCAR-5 = test system: OVCAR-5
A549 = test system: A549
UACC-257 = test system: UACC-257
CCRF-CEM = test system: CCRF-CEM
TK-10 = test system: TK-10
PC-3 = test system: PC-3
SNB-75 = test system: SNB-75
NCI-H23 = test system: NCI-H23
HCT-116 = test system: HCT-116
Hs-578T = test system: Hs-578T
T47D = test system: T47D
RPMI-8226 = test system: RPMI-8226

Row | SMILES | GI50 (SNB-19) | GI50 (COLO 205) | GI50 (MDA-N) | GI50 (IGROV-1) | GI50 (SF-539) | GI50 (MCF7) | GI50 (DU-145) | GI50 (OVCAR-5) | GI50 (A549) | GI50 (UACC-257) | GI50 (CCRF-CEM) | GI50 (TK-10) | GI50 (PC-3) | GI50 (SNB-75) | GI50 (NCI-H23) | GI50 (HCT-116) | GI50 (Hs-578T) | GI50 (T47D) | GI50 (RPMI-8226)
1 | CC(C)=CCC[C@@H](C)C1=C(O)C(O)C(C)=C2N=C(c3ccccc3)C(=O)OC21 (stereo partly drawn) | 3.33 µM (inactive) | 9.38 µM (inactive) | 7.57 µM (inactive) | 1.22 µM (inactive) | 4.33 µM (inactive) | 1.21 µM (inactive) | 4.36 µM (inactive) | 18.1 µM (inactive) | 2.65 µM (inactive) | 2.88 µM (inactive) | 2.4 µM (inactive) | 1.9 µM (inactive) | 8.36 µM (inactive) | 3.7 µM (inactive) | 0.726 µM (active) | 4.03 µM (inactive) | 1.87 µM (inactive) | 1.21 µM (inactive) | 
2 | O=C1C=CC(=O)N1n1c(Cc2ccccc2)n[nH]c1=O | > 100 µM (inactive) | > 100 µM (inactive) | > 100 µM (inactive) | > 100 µM (inactive) | > 100 µM (inactive) | > 100 µM (inactive) | > 100 µM (inactive) | > 100 µM (inactive) | > 100 µM (inactive) | > 100 µM (inactive) | > 100 µM (inactive) | > 100 µM (inactive) | > 100 µM (inactive) |  | > 100 µM (inactive) | > 100 µM (inactive) | > 100 µM (inactive) | > 100 µM (inactive) | > 100 µM (inactive)
3 | CN(C)c1c(C2OC(CO)C(O)C2O)c(=O)c1=O (stereo not drawn) | > 100 µM (inactive) |  | > 100 µM (inactive) | > 100 µM (inactive) | < 0.01 µM (active) |  | > 100 µM (inactive) | > 100 µM (inactive) | > 100 µM (inactive) | > 100 µM (inactive) | 82.2 µM (inactive) | > 100 µM (inactive) | > 100 µM (inactive) | > 100 µM (inactive) | > 100 µM (inactive) | > 100 µM (inactive) | > 100 µM (inactive) | > 100 µM (inactive) | > 100 µM (inactive)
4 | CCN1C(=S)n2cccc2C1CC(=O)c1ccc(Cl)cc1 (stereo not drawn) | 75.3 µM (inactive) |  | 88.5 µM (inactive) | > 100 µM (inactive) |  | 24.8 µM (inactive) | > 100 µM (inactive) | 87.9 µM (inactive) | 15.3 µM (inactive) | 18.4 µM (inactive) |  | 95.9 µM (inactive) | 40.2 µM (inactive) | 54.7 µM (inactive) | 13 µM (inactive) | 33 µM (inactive) | > 100 µM (inactive) | 56.6 µM (inactive) | 15.7 µM (inactive)
5 | CC(C)C1CN1CC(O)Cn1ccnc1[N+](=O)[O-] (stereo not drawn) | > 100 µM (inactive) | > 100 µM (inactive) | > 100 µM (inactive) | > 100 µM (inactive) | > 100 µM (inactive) | > 100 µM (inactive) | > 100 µM (inactive) | > 100 µM (inactive) | > 100 µM (inactive) | > 100 µM (inactive) | > 100 µM (inactive) | > 100 µM (inactive) | > 100 µM (inactive) | > 100 µM (inactive) | > 100 µM (inactive) | > 100 µM (inactive) | > 100 µM (inactive) | > 100 µM (inactive) | 
6 | CCN(CCCN(CC)C(=O)Nc1c(C)cccc1C)C(=O)Nc1c(C)cccc1C | > 100 µM (inactive) | > 100 µM (inactive) | > 100 µM (inactive) | > 100 µM (inactive) |  | > 100 µM (inactive) | > 100 µM (inactive) | > 100 µM (inactive) | > 100 µM (inactive) | > 100 µM (inactive) |  | > 100 µM (inactive) | > 100 µM (inactive) | 40.3 µM (inactive) | > 100 µM (inactive) | > 100 µM (inactive) | > 100 µM (inactive) | 35.4 µM (inactive) | > 100 µM (inactive)
7 | COc1ccc2c(cnc3c4cc(OC)c(OC)cc4ccc23)c1 | > 100 µM (inactive) | > 100 µM (inactive) | > 100 µM (inactive) | > 100 µM (inactive) | > 100 µM (inactive) | > 100 µM (inactive) | > 100 µM (inactive) | > 100 µM (inactive) | > 100 µM (inactive) | > 100 µM (inactive) | > 100 µM (inactive) | > 100 µM (inactive) | > 100 µM (inactive) |  | > 100 µM (inactive) | > 100 µM (inactive) | > 100 µM (inactive) | > 100 µM (inactive) | 
8 | CCSSCS(C)(=O)=O | 42.7 µM (inactive) | 6.4 µM (inactive) | 10.5 µM (inactive) |  | 8.81 µM (inactive) | 22.5 µM (inactive) | 19.1 µM (inactive) | 53.1 µM (inactive) | 36.7 µM (inactive) | 21.3 µM (inactive) | 3.9 µM (inactive) | 36.3 µM (inactive) | 40 µM (inactive) | 23.3 µM (inactive) | 32.9 µM (inactive) | 23.6 µM (inactive) | 43.5 µM (inactive) | 35.2 µM (inactive) | 
9 | COc1ccc(CCN2CCN(CCCc3ccccc3)CC2)cc1 | > 100 µM (inactive) | 22.9 µM (inactive) | > 100 µM (inactive) | 96.8 µM (inactive) | > 100 µM (inactive) | > 100 µM (inactive) | > 100 µM (inactive) | 77.1 µM (inactive) | > 100 µM (inactive) | 77.3 µM (inactive) | > 100 µM (inactive) | 64.4 µM (inactive) | > 100 µM (inactive) |  | 64.3 µM (inactive) | > 100 µM (inactive) | > 100 µM (inactive) | 34 µM (inactive) | > 100 µM (inactive)
10 | COC1OC2COC(C)(C)OC2C2OC(C)(C)OC12 (stereo not drawn) | 21.8 µM (inactive) | 46.5 µM (inactive) | 69.5 µM (inactive) | 18.7 µM (inactive) |  | 23.6 µM (inactive) | > 100 µM (inactive) | > 100 µM (inactive) | 85.1 µM (inactive) | 63.2 µM (inactive) | 19 µM (inactive) | 49.8 µM (inactive) | 80.5 µM (inactive) |  | 82.4 µM (inactive) | > 100 µM (inactive) | 17 µM (inactive) | > 100 µM (inactive) | 17 µM (inactive)
11 | CC(NC(=O)Cc1ccc(OP(=O)(OCc2ccc([N+](=O)[O-])o2)N(C)CCCCCl)cc1)c1ccc(OCC2CCCCC2)c(C(N)=O)c1 (stereo not drawn) | 3.3 µM (inactive) | 1.63 µM (inactive) | 1.88 µM (inactive) | 1.91 µM (inactive) | 2.02 µM (inactive) | 2.52 µM (inactive) | 2.8 µM (inactive) | 3.01 µM (inactive) | 1.87 µM (inactive) | 1.67 µM (inactive) | 0.906 µM (active) | 3.22 µM (inactive) | 2.88 µM (inactive) |  | 2.08 µM (inactive) | 1.85 µM (inactive) | 1.92 µM (inactive) | 1.18 µM (inactive) | 0.574 µM (active)
12 | Cc1c(S(=O)(=O)N/C(=N\O)Nc2ccc(Cl)cc2)sc2ccc(Cl)cc12 | 18.2 µM (inactive) | 15.9 µM (inactive) | 18.2 µM (inactive) | 12.7 µM (inactive) | 21.5 µM (inactive) |  | 23.3 µM (inactive) | 18.1 µM (inactive) | 16.4 µM (inactive) | 16.4 µM (inactive) | 38.4 µM (inactive) | 16.9 µM (inactive) | 17.1 µM (inactive) | 18.7 µM (inactive) | 18 µM (inactive) | 13.9 µM (inactive) | 18.8 µM (inactive) | 19 µM (inactive) | 
